In patent US9427446B2, “Stable injectable composition containing diclofenac and thiocolchicoside” (EPIFARMA S.R.L., priority 2012, dated 2016):

Assay: Suitability of BHT as antioxidant for a solution of diclofenac and thiocolchicoside (solubility/precipitation on storage)
Assay type: physicochemical
Details: ordinary storage conditions

Cc1cc(C(C)(C)C)c(O)c(C(C)(C)C)c1 [BHT, 2,6-bis(1,1-dimethylethyl)-4-methylphenol]
Solubility / precipitation as antioxidant in a solution of diclofenac and thiocolchicoside: poor solubility and precipitation
